According to patent US6495356B1, “Beryllofluoride analogues of acyl phosphate polypeptides” (priority 1999, dated 2002):

Key:
[1] = target: T1, NtrC^WT (Salmonella typhimurium, UniProt P41789, C30V/C364A); assay type: biochemical; settings: for Stimulation of the ATPase activity of NtrC^WT: BeCl2 200 μM, AlCl3 200 μM, NaF 5 mM, VO4^3− 1 mM, compared with carbamoyl phosphate 10 mM
T1 construct: made in house
Procedure: NtrC proteins. […] All full-length NtrC proteins (dimer concentration) were maltose binding protein fusions to NtrC lacking its two natural cysteines (MBP-NtrC^C30V,C364A) or its derivatives.
Assays. […] Mol. Biol. 249, 700-713). Prior to addition of ATP, other components were incubated for 30 min at 25° C. together with the indicated small molecule or combination of small molecules (carbamoyl phosphate, 10 mM; BeCl2, 200 μM; AlCl3, 200 μM; NaF, 5 mM; VO4^3−, 1 mM). The response of the ATPase activity of NtrC to the concentration of NaF or BeCl2 was assessed essentially as above, except the reaction time was 10 min.

[2] = target: T2, NtrC^D86N,S160F (Salmonella typhimurium, UniProt P41789, C30V/C364A/D86N/S160F); assay type: biochemical; settings: for Effect of single component on ATPase activity of NtrC^D86N,S160F: trace amounts of BeCl2 alone, high concentrations of NaF in absence of BeCl2
T2 construct: made in house

[3] = target: T3, phosphoserine phosphatase (PSP) (Methanocaldococcus jannaschii, UniProt Q58989); test: Inhibition of hydrolytic activity of PSP; assay type: biochemical, Methanococcus jannaschii; settings: for Effect of single component on PSP activity: NaF alone or BeCl2 alone; for Inhibition of hydrolytic activity of PSP: analog generated in situ (NaF plus BeCl2 or AlCl3)
T3 construct: made in house

[4] = test system: control region for the fdnG operon; test: DNase I footprinting of NarL DNA-binding; design: species or system E. coli
[5] = target: T1, NtrC^WT; test: Formation of open complexes, single-cycle transcription assay; assay type: biochemical; settings: ≦100 μM BeFx vs 10 mM carbamoyl phosphate
Procedure: Formation of open complexes was assessed in a single-cycle transcription assay on a supercoiled plasmid template pJES534 (1 nM) (Porter et al. (1993) Genes Dev. 7, 2258-2273; Flashner et al. (1995) J. Mol. Biol. 249, 700-713). NtrC was incubated with 100 μM BeCl2 plus 10 mM NaF or 10 mM carbamoyl phosphate, respectively, at 37° C. for 10 min prior to initiation of the reaction with ATP.
(§1) Transcriptional activation of NtrC was assessed as described in Flashner et al. (1995) J. Mol. Biol. 249, 700-713. DNA-binding of OmpR was assessed as described in Huang and Igo (1996) J. Mol. Biol. 262, 615-628. DNA-binding of NarL was assessed as described in Li et al. (1994) J. Mol. Biol. 241, 150-165 and Darwin et al. (1997) Mol. Microbiol 25, 583-595.

[6] = test system: mutant forms of NtrC in which D54 has been replaced by A or N; test: ATPase activity of NtrC D54 mutants; assay type: biochemical, Salmonella typhimurium; settings: data not shown
[7] = target: T4, NtrC^D86C,Fe (Salmonella typhimurium, UniProt P41789, C30V/C364A/D86C); test: Fe-mediated cleavage of NtrC^D86C,Fe; assay type: biochemical; settings: BeCl2 200 μM, NaF 10 mM; divalent cation required
T4 construct: made in house
Procedure: Fe-mediated cleavage of NtrC was assessed as follows: NtrC (5 to 10 μM) was incubated for 30 min at 25° C. with the indicated small molecule or combination of small molecules (carbamoyl phosphate, 10 mM; BeCl2, 200 μM; NaF, 10 mM) in cleavage buffer (10 mM MOPS, pH 8.0, 50 mM KCl, 8 mM MgCl2, 5% glycerol, 1 mM EDTA). Then cleavage was initiated by adding H2O2 and sodium ascorbate to final concentrations of 50 mM and samples were subjected to analysis by SDS-PAGE as described (Greiner etal. (1997) Bioconjugate Chem. 8, 44-48).
We have two direct lines of evidence that BeFx mimics effects of phosphorylation of NtrC structurally as well as functionally. […] Rearrangement at the dimer interface of P-NtrC is postulated to drive the formation of active oligomers. […] By contrast, the BeFx-dependent cleavage did require a divalent cation, and either Mg^2+ or Mn^2+ could serve (FIG. 3B). Thus, like phosphorylation (Parkinson and Kofoid (1992) Annu. Rev. Genet. 26, 71-112; Stock et al. (1995) in Two-component signal transduction, eds. Hoch and Silhavy (ASM, Washington, D.C.), pp. 25-51; Lukat et al. (1992) Proc. Natl. Acad. Sci. USA 89, 718-722; Feng et al. (1992) J. Bacteriol. 174, 6061-6070), the interaction between BeFx and D54 of NtrC requires a divalent cation. […]

[8] = target: FliM peptide (residues 1-16); test: FliM peptide binding of CheY (tryptophan fluorescence quenching); design: species or system E. coli; settings: CheY 10 μM; ± 2 mM BeCl2, 20 mM NaF, 20 mM MgCl2; read-out: Dissociation constant for binding to the FliM peptide
Procedure: FliM peptide binding of CheY was assessed as described in McEvoy et al. (1999) J. Mol. Biol. 289, 1423-1433. Fluorescence intensity of CheY (10 μM) at 340 nm was measured as a function of added FliM peptide in the absence or presence of 2 mM BeCl2, 20 mM NaF and 20 mM MgCl2.
There is no direct in vitro assay for the activity of P-CheY in reversing the direction of flagellar rotation. […] The strength of this binding, which was assessed by quenching of the intrinsic tryptophan fluorescence of CheY, was recently reported to be phosphorylation-dependent (McEvoy et al. (1999) J. Mol. Biol. 289, 1423-1433). […] By this criterion, BeFx.CheY is as active as P-CheY. Like BeFx.CheY, a phosphonate derivative of CheY^D57C appears to be a biochemical analogue of P-CheY, but it is difficult to prepare (Halkides et al. (1998) Biochemistry 37, 13674-13680). Such analogues are extremely useful because the acyl phosphate linkage of P-CheY is exceptionally labile (half life of seconds) (Parkinson and Kofoid (1992) Annu. Rev. Genet. 26, 71-112; Stock et al. (1995) in Two-component signal transduction, eds. Hoch and Silhavy (ASM, Washington, D.C.), pp. 25-51).

[9] = test system: ompF promoter-regulatory region; test: DNase I footprinting of OmpR binding; design: species or system E. coli; settings: compared with P-OmpR (EnvZ or acetyl phosphate); NaF 10 mM, BeCl2 100 μM
Procedure: Binding of BeFx.OmpR to the ompF promoter-regulatory region was assessed by DNase I footprinting as described in Huang and Igo (1996) J. Mol. Biol. 262, 615-628 and was compared to that of P-OmpR. The concentrations of OmpR were: 6.4 μM (lanes 1, 6, 11 and 16); 1.6 μM (lanes 2, 7, 12 and 17); 0.4 μM (lanes 3, 8, 13 and 18); 0.1 μM (lanes, 4, 9, 14 and 19); and 0 μM (lanes 5, 10, 15 and 20). For samples in lanes 6-10, OmpR was phosphorylated by MBP-EnvZ (0.3 μM) as described (Huang and Igo (1996) J. Mol. Biol. 262, 615-628). For samples in lanes 11-20, NaF (10 mM) was present and for those in lanes 16-20, BeCl2 (100 μM) was also present. Non-specific DNA-binding observed in the presence of BeCl2 and NaF in lanes 16 and 17 was not observed when OmpR was phosphorylated by EnvZ (lanes 6 and 7) unless much higher concentrations of OmpR were used (see FIG. 4).
as §1

[Be+2].[Cl-].[Cl-] [BeCl2]
BeCl2 concentration at which inhibition of ATPase activity occurred ([1]; 5 mM NaF): ≥ 200 µM
BeCl2 concentration at which ATPase activity was detected (lowest tested) ([1]; 5 mM NaF, NtrC^WT 0.4 μM dimer): 5 µM
BeCl2 concentration giving highest ATPase activity ([1]; 5 mM NaF, NtrC^WT 0.4 μM dimer): 100 µM
Effect of single component on ATPase activity of NtrC^D86N,S160F [2]: inhibited
Effect of single component on PSP activity [3]: Neither alone had such a profound effect

[F-].[Na+] [NaF]
NaF concentration at which inhibition of ATPase activity occurred ([1]; 50 μM BeCl2): ≥ 50 mM
NaF concentration below which no ATPase activity was observed ([1]; 50 μM BeCl2): 1 mM
Effect of single component on ATPase activity of NtrC^D86N,S160F [2]: inhibited
Effect of single component on PSP activity [3]: Neither alone had such a profound effect

[O]=[V]([O-])([O-])[O-] [VO4^3−, orthovanadate]
Stimulation of the ATPase activity of NtrC^WT [1]: neither AlFx nor VO4^3− could substitute
Inhibition of hydrolytic activity of PSP [3]: observed to inhibit PSP activity

ADP.BeFx
Inhibition of the ATPase activity of NtrC^D86N,S160F ([2]; ADP complexes of phosphate analogs): neither ADP.BeFx nor ADP.AlFx nor ADP.VO4^3− appeared to inhibit

BeFx.NarL: beryllofluoride complex of E. coli response regulator NarL
Activity relative to P-NarL ([4]; 200 μM BeCl2, 10 mM NaF and 5 mM MgCl2): less active
Binding to the control region for the fdnG operon ([4]; compared with P-NarL, data not shown): bound similarly

aluminofluoride [AlFx]
Stimulation of the ATPase activity of NtrC^WT [1]: neither AlFx nor VO4^3− could substitute
Stimulation of the ATPase activity of unphosphorylated NtrC^D86N,S160F [2]: but not Alfx
Inhibition of hydrolytic activity of PSP [3]: can substitute for BeF3^− to inhibit PSP activity

beryllofluoride [BeFx]
Stimulation of the ATPase activity of NtrC^WT [1]: as effective as carbamoyl phosphate
Stimulation of the ATPase activity of unphosphorylated NtrC^D86N,S160F [2]: substantially stimulated
Activation of transcription by σ54-holoenzyme (open complexes) [5]: at least as great as that of the phosphorylated protein
Stimulation of ATPase activity of D54A / D54N NtrC [6]: failure of BeFx to stimulate
Phosphorylation-dependent Fe-mediated cleavage [7]: yields an otherwise phosphorylation-dependent cleavage
Inhibition of PSP activity at different temperatures ([3]; 70° C. or room temperature, data not shown): similarly inhibited
Inhibition of hydrolytic activity of PSP [3]: significantly inhibited

B1: BeFx.CheY: beryllofluoride acyl phosphate analogue of E. coli response regulator CheY (protein, UniProt P0AE67 2-129, looked up)
Chemotaxis protein CheY: ADKELKFLVVDDFSTMRRIVRNLLKELGFNNVEEAEDGVDALNKLQAGGYGFVISDWNMPNMDGLELLKTIRADGAMSALPVLMVTAEAKKENIIAAAQAGASGYVVKPFTAATLEEKLNKIFEKLGM
modifications: beryllofluoride complex
Kd [8]: 26 µM

B2: CheY: E. coli CheY, central regulator of the chemotactic response, unmodified inactive form (protein, UniProt P0AE67 2-129, looked up)
Chemotaxis protein CheY: ADKELKFLVVDDFSTMRRIVRNLLKELGFNNVEEAEDGVDALNKLQAGGYGFVISDWNMPNMDGLELLKTIRADGAMSALPVLMVTAEAKKENIIAAAQAGASGYVVKPFTAATLEEKLNKIFEKLGM
Kd [8]: 500 µM

B3: BeFx.OmpR: beryllofluoride complex of E. coli response regulator OmpR (protein, UniProt P0AA16 1-239, looked up)
DNA-binding dual …: MQENYKILVVDDDMRLRALLERYLTEQGFQVRSVANAEQMDRLLTRESFHLMVLDLMLPGEDGLSICRRLRSQSNPMPIIMVTAKGEEVDRIVGLEIGADDYIPKPFNPRELLARIRAVLRRQANELPGAPSQEEAVIAFGKFKLNLGTREMFREDEPMPLTSGEFAVLKALVSHPREPLSRDKLMNLARGREYSAMERSIDVQISRLRRMVEEDPAHPRYIQTVWGLGYVFVPDGSKA
modifications: beryllofluoride complex
Binding to regulatory region upstream of the ompF promoter [9]: better than P-OmpR
